The text below walks through data of patent US20220135591A1, “HETEROCYCLIC COMPOUNDS AS INHIBITORS OF MONOACYLGLYCEROL LIPASE (MAGL)” (Hoffmann-La Roche Inc., priority 2019, published 2022).

The assay addresses T1, MAGL (Homo sapiens, UniProt Q99685).
T1 sequence (Q99685 1-303): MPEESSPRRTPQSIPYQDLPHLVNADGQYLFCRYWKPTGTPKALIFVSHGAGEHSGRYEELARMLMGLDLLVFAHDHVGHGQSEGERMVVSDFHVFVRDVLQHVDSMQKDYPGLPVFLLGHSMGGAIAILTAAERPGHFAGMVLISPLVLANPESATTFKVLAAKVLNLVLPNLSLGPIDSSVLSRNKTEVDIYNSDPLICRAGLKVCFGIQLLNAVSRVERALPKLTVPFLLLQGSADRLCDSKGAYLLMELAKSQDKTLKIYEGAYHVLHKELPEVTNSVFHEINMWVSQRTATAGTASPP
The assay can be described thus: 2-AG assay: MAGL inhibitory activity by hydrolysis of 2-arachidonoylglycerol to arachidonic acid, mass spectrometry. The format is biochemical. The following applies: 2-AG assay (values marked [b]). In outline:
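Human MAGL […] was preincubated 15 min at RT with compound ([…], 3-fold steps) in 50 mM Tris, 1 mM EDTA, 0.01% Tween. 2-AG (8 μM) was then added for 30 min at RT. Arachidonic acid was quantified by RapidFire SPE–triple quadrupole MS in negative ESI as its ratio to a d8-arachidonic acid standard.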

pIC50: −log10 of the molar value.

The term pIC50 denotes −log10 of the IC50, conventionally taken in molar units. For the compound `CC(C)(C)Cn1nnc(-c2ccc(C(=O)N3CCN(c4nc5nc(Cl)ccc5o4)CC3)cc2)n1` [Example 283, (4-(5-chlorooxazolo[4,5-b]pyridin-2-yl)piperazin-1-yl)(4-(2-neopentyl-2H-tetrazol-5-yl)phenyl)methanone], the pIC50 was 8.52. In turn, `CC(C)(C)c1nc(-c2ccc(C(=O)N3CC4CCC(C3)N4c3nc4nc(Cl)ccc4o3)cc2)no1` [Example 284, [4-(5-tert-butyl-1,2,4-oxadiazol-3-yl)phenyl]-[8-(5-chlorooxazolo[4,5-b]pyridin-2-yl)-3,8-diazabicyclo[3.2.1]octan-3-yl]methanone] showed a pIC50 of 6.46. For `Cc1cc(C(=O)N2CCN(c3nc4nc(Cl)ccc4o3)CC2)ccc1-c1cn(CC(C)(C)C)nn1` [Example 231, (4-(5-chlorooxazolo[4,5-b]pyridin-2-yl)piperazin-1-yl)(3-methyl-4-(1-neopentyl-1H-1,2,3-triazol-4-yl)phenyl)methanone] the value was 8.40; for `Cc1ccc2oc(N3CCN(C(=O)c4ccc(-c5ncn(CC(C)(C)C)n5)c(F)c4)CC3)nc2n1` [Example 294, [4-[1-(2,2-dimethylpropyl)-1,2,4-triazol-3-yl]-3-fluoro-phenyl]-[4-(5-methyloxazolo[4,5-b]pyridin-2-yl)piperazin-1-yl]methanone], 7.47; for `CC(C)(C)Cn1cc(-c2ccc(C(=O)N3CCN(c4nc5nc(Cl)ccc5o4)CC3)cc2C(F)(F)F)nn1` [Example 268, (4-(5-chlorooxazolo[4,5-b]pyridin-2-yl)piperazin-1-yl)(4-(1-neopentyl-1H-1,2,3-triazol-4-yl)-3-(trifluoromethyl)phenyl)methanone], 8.40. In the case of `Cc1cc(C(=O)N2CCN(c3nc4nc(Cl)ccc4o3)CC2)cnc1OCC1(C(F)(F)F)CC1` [Example 153, (4-(5-chlorooxazolo[4,5-b]pyridin-2-yl)piperazin-1-yl)(5-methyl-6-((1-(trifluoromethyl)cyclopropyl)methoxy)pyridin-3-yl)methanone] it was 8.00; in that of `CC(C)(C)Cn1cc(-c2ccc(C(=O)N3CCN(c4nc5nc(F)ccc5o4)CC3)cc2)nn1` [Example 286, [4-[1-(2,2-dimethylpropyl)triazol-4-yl]phenyl]-[4-(5-fluorooxazolo[4,5-b]pyridin-2-yl)piperazin-1-yl]methanone], 7.35; in that of `Cc1cc(C(=O)N2CCN(c3nc4nc(Cl)ccc4o3)CC2)cnc1OCC1(F)COC1` [Example 161, (4-(5-chlorooxazolo[4,5-b]pyridin-2-yl)piperazin-1-yl)(6-((3-fluorooxetan-3-yl)methoxy)-5-methylpyridin-3-yl)methanone], 6.04. In the case of `O=C(N1CCN(c2nc3nc(Cl)ccc3o2)CC1)N1CC(C#Cc2ccc(F)cc2Cl)C1` [Example 250, [3-[2-(2-chloro-4-fluorophenyl)ethynyl]azetidin-1-yl]-[4-(5-chloro-[1,3]oxazolo[4,5-b]pyridin-2-yl)piperazin-1-yl]methanone] it was 7.60. The compound `O=C(N1CCN(c2nc3nc(Cl)ccc3o2)CC1)N1CC(C#Cc2c(Cl)cccc2Cl)C1` [Example 249, (4-(5-chlorooxazolo[4,5-b]pyridin-2-yl)piperazin-1-yl)(3-((2,6-dichlorophenyl)ethynyl)azetidin-1-yl)methanone] showed a pIC50 of 7.66. This pIC50 and that of the compound before are within 0.2 log units of each other. Compound `Cc1ccc2oc(N3CCN(C(=O)c4ccc(-n5cnc(C(C)(C)C)n5)c(Cl)c4)CC3)nc2n1` [Example 291, [4-(3-tert-butyl-1,2,4-triazol-1-yl)-3-chloro-phenyl]-[4-(5-methyloxazolo[4,5-b]pyridin-2-yl)piperazin-1-yl]methanone] showed a negative-log IC50 (pIC50) of 6.76. In the case of `Cc1ccc2oc(N3CCN(C(=O)c4ccc(-c5cn(CC(C)(C)C)nn5)cc4)CC3)nc2n1` [Example 75, [4-[1-(2,2-dimethylpropyl)triazol-4-yl]phenyl]-[4-(5-methyloxazolo[4,5-b]pyridin-2-yl)piperazin-1-yl]methanone] it was 7.72. `Cc1ccc2oc(N3CCN(C(=O)c4cnc(-c5cnnn5CC(C)(C)C)c(F)c4)CC3)nc2n1` [Example 246, (5-fluoro-6-(1-neopentyl-1H-1,2,3-triazol-5-yl)pyridin-3-yl)(4-(5-methyloxazolo[4,5-b]pyridin-2-yl)piperazin-1-yl)methanone] showed a pIC50 of 5.88. In the case of `Cc1ccc2oc(N3CCN(C(=O)c4ccc(-c5ncn(C(C)(C)C)n5)c(C(F)(F)F)c4)CC3)nc2n1` [Example 111, [4-(1-tert-butyl-1,2,4-triazol-3-yl)-3-(trifluoromethyl)phenyl]-[4-(5-methyl-[1,3]oxazolo[4,5-b]pyridin-2-yl)piperazin-1-yl]methanone] it was 7.55; in that of `Cn1nc(C(C)(C)C)nc1-c1ccc(C(=O)N2CCN(c3nc4nc(Cl)ccc4o3)CC2)cc1` [Example 119, [4-(5-tert-butyl-2-methyl-1,2,4-triazol-3-yl)phenyl]-[4-(5-chlorooxazolo[4,5-b]pyridin-2-yl)piperazin-1-yl]methanone], 6.85; in that of `CC(C)(C)Cn1cnc(-c2ccc(C(=O)N3CCN(c4nc5nc(Cl)ccc5o4)CC3)cc2F)n1` [Example 293, [4-(5-chlorooxazolo[4,5-b]pyridin-2-yl)piperazin-1-yl]-[4-[1-(2,2-dimethylpropyl)-1,2,4-triazol-3-yl]-3-fluoro-phenyl]methanone], 7.70.

In the case of `C[C@H]1CN(C(=O)c2ccc(-c3cn(CC(C)(C)C)nn3)cc2)CCN1c1nc2nc(Cl)ccc2o1` [Example 274, [(3S)-4-(5-chlorooxazolo[4,5-b]pyridin-2-yl)-3-methyl-piperazin-1-yl]-[4-[1-(2,2-dimethylpropyl)triazol-4-yl]phenyl]methanone], the pIC50 is 6.86. For `CC1(Cn2cc(-c3ccc(C(=O)N4CCN(c5nc6nc(Cl)ccc6o5)CC4)cc3)nn2)COC1` [Example 101, (4-(5-chlorooxazolo[4,5-b]pyridin-2-yl)piperazin-1-yl)(4-(1-((3-methyloxetan-3-yl)methyl)-1H-1,2,3-triazol-4-yl)phenyl)methanone] the value was 6.22. For `Cc1cc(C(=O)N2CCN(c3nc4nc(Cl)ccc4o3)CC2)ccc1-c1nnc(CC(C)C)o1` [Example 275, [4-(5-chlorooxazolo[4,5-b]pyridin-2-yl)piperazin-1-yl]-[4-(5-isobutyl-1,3,4-oxadiazol-2-yl)-3-methyl-phenyl]methanone] the value was 7.59; for `Cc1cc(C(=O)N2CCN(c3nc4nc(Cl)ccc4o3)CC2)cnc1OCC1(C#N)COC1` [Example 164, 3-(((5-(4-(5-chlorooxazolo[4,5-b]pyridin-2-yl)piperazine-1-carbonyl)-3-methylpyridin-2-yl)oxy)methyl)oxetane-3-carbonitrile], 5.81. The compound `CC(C)Cc1nnc(-c2ccc(C(=O)N3CCN(c4nc5nc(Cl)ccc5o4)CC3)cc2)o1` [Example 267, (4-(5-chlorooxazolo[4,5-b]pyridin-2-yl)piperazin-1-yl)(4-(5-isobutyl-1,3,4-oxadiazol-2-yl)phenyl)methanone] had a pIC50 of 7.16. For `Cc1cc(C(=O)N2CCN(c3nc4nc(Cl)ccc4o3)CC2)cnc1OCC1(CC#N)CC1` [Example 162, 2-(1-(((5-(4-(5-chlorooxazolo[4,5-b]pyridin-2-yl)piperazine-1-carbonyl)-3-methylpyridin-2-yl)oxy)methyl)cyclopropyl)acetonitrile] the value was 6.64.
